Measured values published in patent publication US10478445B2, “Boronic acid derivatives of resveratrol for activating deacetylase enzymes” (Georgetown University, priority 2013, dated 2019).

Tests used:
[1] = biological target: T1, purified human SIRT1 enzyme (Homo sapiens, UniProt Q96EB6); experiment: In vitro SIRT assay (Fluor-de-Lys-SIRT1 deacetylase assay); assay type: biochemical; settings: 50 μM of suramin added to reaction
T1 construct: purchased Enzo Life Sciences
T1 sequence (Q96EB6 1-747): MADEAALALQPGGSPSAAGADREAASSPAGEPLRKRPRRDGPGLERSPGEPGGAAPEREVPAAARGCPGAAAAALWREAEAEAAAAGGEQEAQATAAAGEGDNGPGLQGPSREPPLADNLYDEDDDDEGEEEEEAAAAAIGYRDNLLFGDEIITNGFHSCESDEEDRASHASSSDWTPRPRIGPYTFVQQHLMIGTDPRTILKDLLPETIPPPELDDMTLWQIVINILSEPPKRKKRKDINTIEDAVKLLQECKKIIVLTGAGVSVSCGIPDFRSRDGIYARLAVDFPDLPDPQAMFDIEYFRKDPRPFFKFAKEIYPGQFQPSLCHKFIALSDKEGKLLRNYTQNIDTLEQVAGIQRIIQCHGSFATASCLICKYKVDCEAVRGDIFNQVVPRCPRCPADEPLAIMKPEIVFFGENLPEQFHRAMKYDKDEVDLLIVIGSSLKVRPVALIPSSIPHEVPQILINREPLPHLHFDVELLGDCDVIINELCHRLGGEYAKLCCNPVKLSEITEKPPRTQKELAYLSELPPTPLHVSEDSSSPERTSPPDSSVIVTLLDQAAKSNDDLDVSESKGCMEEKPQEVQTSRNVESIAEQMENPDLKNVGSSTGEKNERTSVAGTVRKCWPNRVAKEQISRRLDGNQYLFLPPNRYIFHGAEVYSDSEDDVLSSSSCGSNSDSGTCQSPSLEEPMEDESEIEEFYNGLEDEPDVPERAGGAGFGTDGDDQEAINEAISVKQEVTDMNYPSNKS
Experimental: The Fluor-de-Lys-SIRT1 and SIRT2 deacetylase assay were performed as manufacturer's instruction (Enzo Life Sciences, Farmingdale, N.Y.). For competition assay, 50 μM of suramin was added to reaction.

[2] = tested on: mtp53; experiment: Western blot analysis of acetyl-mtp53 (K382) and mtp53 level; assay type: cell-based; settings: HS578T; 10 μM suramin 1 hr, then 1 μM YK-3-237 23 hr
Experimental: Preparation of cell lysates and western blot analyses were performed. Antibodies were obtained from the following sources: Ac-p53 (K382; #2525), Ac-α-tubulin (K40; #3971), phospho-ACC (S78; #3661), and ACC (#3676) from Cell Signaling (Danvers, Mass.); PARP (#556494) from BD Pharmingen (San Jose, Calif.); p53 (V1003) from Biomeda (Foster City, Calif.); ERα (sc-543) and SIRT1 (sc-15404) from Santa Cruz (Santa Cruz, Calif.); α-tubulin, β-Actin (A1978), and horseradish peroxidase-conjugated secondary antibodies from Sigma (St. Louis, Mo.). Chemiluminescence reagent was obtained from Santa Cruz or Thermo Scientific (Rockford, Ill.).

[3] = biological target: T1, purified human SIRT1 enzyme; settings: reported; cited from earlier work
[4] = tested on: acetyl-p53; settings: reported; cited from earlier work

## Cc1ccc(C(=O)Nc2ccc(S(=O)(=O)O)c3cc(S(=O)(=O)O)cc(S(=O)(=O)O)c23)cc1NC(=O)c1cccc(NC(=O)Nc2cccc(C(=O)Nc3cc(C(=O)Nc4ccc(S(=O)(=O)O)c5cc(S(=O)(=O)O)cc(S(=O)(=O)O)c45)ccc3C)c2)c1 [suramin]
[1]
  effect on YK-3-237-mediated SIRT1 activation (competition assay): antagonized YK-3-237-mediated SIRT1 activation
[2]
  effect of pre-treatment on YK-3-237-mediated deacetylation and reduction of mtp53: reversed both deacetylation of mtp53 (K382) and reduction of mtp53 protein

## O=C(Nc1ccccc1-c1cn2c(CN3CCNCC3)csc2n1)c1cnc2ccccc2n1 [SRT1720]
[3]
  in vitro SIRT1 activity toward nascent p53 peptide: could not activate in vitro SIRT1 activity toward nascent p53 peptide
[4]
  acetyl-p53 in cells: reduce acetyl-p53 in cells
